The supplement of paper PMC11208160
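Note: IS621 bridge recombinase in Escherichia coli cells against a fixed T5 target plasmid.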

Test: recombinant UMI read abundance after kanamycin selection (control-corrected) (log10(CPM+1)); higher = more efficient recombination; extreme values may be limits of the assay; sequences stand for … in AGTGCAGAGAAAATCGGCCAGTTTTCTCTGCCTGCAGTCCGCATGCCGTGGGACCCCTTGGGTTCTAACCTGTTGCCTAGATTTATGCAGCGGACTGCCTTTCTCCCAAAGTGATAAACCGG…AGGTTGGTTTCACT; site = the 11-nt donor
How it was run: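 Sequencing read counts were converted to CPM, averaged over two replicates and scaled by control-derived factors. Results are given as log10(CPM+1). The reads covered the donor–target junction of recombinant UMIs from a pooled Escherichia coli screen of donor and donor-binding-loop pairs for the IS621 bridge recombinase.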
With “CGCTCAGCATGGACCGGTTTTCCCGGTAATCCGTATTTGGG (site TGCTCAGCTCC)” the “recombinant UMI read abundance (log10)” value was 0.00882.
With “CGCTCCGCATGGACCGGTTTTCCCGGTAATCCGTATTTGCA (site CGCTCCGCTTG)” the “recombinant UMI read abundance (log10)” value was 1.79.
For “CGCTCCTCATGGACCGGTTTTCCCGGTAATCCGTATTTGCA (site CGCTCCTCTTG)”, the “recombinant UMI read abundance (log10)” value was 2.84.
With “CGCTGAGCATGGACCGGTTTTCCCGGTAATCCGTATTTGGT (site CGCTGAGCTAC)” the “recombinant UMI read abundance (log10)” value was 1.31.
With “CGCTGATCATGGACCGGTTTTCCCGGTAATCCGTATTTGCC (site CGCTGATCTGG)” the “recombinant UMI read abundance (log10)” value was 1.88.
In the case of “CGCTGGACATGGACCGGTTTTCCCGGTAATCCGTATTTGAA (site CGCTGGACTTT)”, the “recombinant UMI read abundance (log10)” value is reported as 1.77.
In the case of “CGCTGTACATGGACCGGTTTTCCCGGTAATCCGTATTTGCT (site CGCAGTACTAG)”, the “recombinant UMI read abundance (log10)” value is reported as 0.
For “CGCTGTACATGGACCGGTTTTCCCGGTAATCCGTATTTGCT (site CGCCGTACTAG)”, the “recombinant UMI read abundance (log10)” value was 1.54.
In the case of “CGCTGTACATGGACCGGTTTTCCCGGTAATCCGTATTTGCT (site CGCGGTACTAG)”, the “recombinant UMI read abundance (log10)” value is reported as 0.
With “CGCTGTACATGGACCGGTTTTCCCGGTAATCCGTATTTGCT (site CGCTGTACTAG)” the “recombinant UMI read abundance (log10)” value was 1.68.
With “CGCTTCTCATGGACCGGTTTTCCCGGTAATCCGTATTTGGG (site CACTTCTCTCC)” the “recombinant UMI read abundance (log10)” value was 0.0042.
In the case of “CGCTTCTCATGGACCGGTTTTCCCGGTAATCCGTATTTGGG (site CCCTTCTCTCC)”, the “recombinant UMI read abundance (log10)” value is reported as 0.0589.
In the case of “CGCTTCTCATGGACCGGTTTTCCCGGTAATCCGTATTTGGG (site CGCTTCTCTCC)”, the “recombinant UMI read abundance (log10)” value is reported as 0.00699.
In the case of “CGCTTCTCATGGACCGGTTTTCCCGGTAATCCGTATTTGGG (site CTCTTCTCTCC)”, the “recombinant UMI read abundance (log10)” value is reported as 0.0109.
With “CGCTTGGCATGGACCGGTTTTCCCGGTAATCCGTATTTGGA (site CACTTGGCTTC)” the “recombinant UMI read abundance (log10)” value was 0.361.
With “CGCTTGGCATGGACCGGTTTTCCCGGTAATCCGTATTTGGA (site CCCTTGGCTTC)” the “recombinant UMI read abundance (log10)” value was 0.
For “CGCTTGGCATGGACCGGTTTTCCCGGTAATCCGTATTTGGA (site CGCTTGGCTTC)”, the “recombinant UMI read abundance (log10)” value was 0.824.
With “CGCTTGGCATGGACCGGTTTTCCCGGTAATCCGTATTTGGA (site CTCTTGGCTTC)” the “recombinant UMI read abundance (log10)” value was 0.00767.
For “CGGAAACCATGGACCGGTTTTCCCGGTAATCCGTATTTGCT (site CGGAAACCTAG)”, the “recombinant UMI read abundance (log10)” value was 0.
With “CGGAAACCATGGACCGGTTTTCCCGGTAATCCGTATTTGCT (site CGGAATCCTAA)” the “recombinant UMI read abundance (log10)” value was 0.
With “CGGAACCCATGGACCGGTTTTCCCGGTAATCCGTATTTGGT (site CGGAACCCTAC)” the “recombinant UMI read abundance (log10)” value was 1.06.
For “CGGAACCCATGGACCGGTTTTCCCGGTAATCCGTATTTGGT (site CGGAATCCTAA)”, the “recombinant UMI read abundance (log10)” value was 0.
With “CGGAACCCATGGACCGGTTTTCCCGGTAATCCGTATTTGTG (site CGGAACCCTCA)” the “recombinant UMI read abundance (log10)” value was 1.13.
With “CGGAACCCATGGACCGGTTTTCCCGGTAATCCGTATTTGTG (site CGGAATCCTAA)” the “recombinant UMI read abundance (log10)” value was 0.
For “CGGAAGACATGGACCGGTTTTCCCGGTAATCCGTATTTGTG (site CGGAAGACTCA)”, the “recombinant UMI read abundance (log10)” value was 2.67.
In the case of “CGGAATCCATGGACCGGTTTTCCCGGTAATCCGTATTTGAC (site CGGAATCCTAA)”, the “recombinant UMI read abundance (log10)” value is reported as 0.003.
In the case of “CGGAATCCATGGACCGGTTTTCCCGGTAATCCGTATTTGAC (site CGGAATCCTGT)”, the “recombinant UMI read abundance (log10)” value is reported as 1.1.
With “CGGAATCCATGGACCGGTTTTCCCGGTAATCCGTATTTGAT (site CGGAATCCTAA)” the “recombinant UMI read abundance (log10)” value was 0.
In the case of “CGGAATCCATGGACCGGTTTTCCCGGTAATCCGTATTTGAT (site CGGAATCCTAC)”, the “recombinant UMI read abundance (log10)” value is reported as 0.0207.
In the case of “CGGAATCCATGGACCGGTTTTCCCGGTAATCCGTATTTGAT (site CGGAATCCTAG)”, the “recombinant UMI read abundance (log10)” value is reported as 0.
In the case of “CGGAATCCATGGACCGGTTTTCCCGGTAATCCGTATTTGAT (site CGGAATCCTAT)”, the “recombinant UMI read abundance (log10)” value is reported as 0.646.
With “CGGAATCCATGGACCGGTTTTCCCGGTAATCCGTATTTGGT (site CGGAATCCTAA)” the “recombinant UMI read abundance (log10)” value was 0.
With “CGGAATCCATGGACCGGTTTTCCCGGTAATCCGTATTTGGT (site CGGAATCCTAC)” the “recombinant UMI read abundance (log10)” value was 0.913.
In the case of “CGGAATCCATGGACCGGTTTTCCCGGTAATCCGTATTTGGT (site CGGAATCCTAG)”, the “recombinant UMI read abundance (log10)” value is reported as 0.
For “CGGAATCCATGGACCGGTTTTCCCGGTAATCCGTATTTGGT (site CGGAATCCTAT)”, the “recombinant UMI read abundance (log10)” value was 0.
In the case of “CGGAATCCATGGACCGGTTTTCCCGGTAATCCGTATTTGTA (site CGGAATCCTAA)”, the “recombinant UMI read abundance (log10)” value is reported as 0.
In the case of “CGGAATCCATGGACCGGTTTTCCCGGTAATCCGTATTTGTA (site CGGAATCCTCA)”, the “recombinant UMI read abundance (log10)” value is reported as 0.781.
For “CGGAATCCATGGACCGGTTTTCCCGGTAATCCGTATTTGTA (site CGGAATCCTGA)”, the “recombinant UMI read abundance (log10)” value was 0.
For “CGGAATCCATGGACCGGTTTTCCCGGTAATCCGTATTTGTA (site CGGAATCCTTA)”, the “recombinant UMI read abundance (log10)” value was 1.29.
For “CGGAATGCATGGACCGGTTTTCCCGGTAATCCGTATTTGGT (site CGGAATCCTAA)”, the “recombinant UMI read abundance (log10)” value was 0.
In the case of “CGGAATGCATGGACCGGTTTTCCCGGTAATCCGTATTTGGT (site CGGAATGCTAC)”, the “recombinant UMI read abundance (log10)” value is reported as 2.27.
For “CGGAATTCATGGACCGGTTTTCCCGGTAATCCGTATTTGTT (site CGGAATACTAA)”, the “recombinant UMI read abundance (log10)” value was 0.00592.
For “CGGAATTCATGGACCGGTTTTCCCGGTAATCCGTATTTGTT (site CGGAATCCTAA)”, the “recombinant UMI read abundance (log10)” value was 0.0141.
In the case of “CGGAATTCATGGACCGGTTTTCCCGGTAATCCGTATTTGTT (site CGGAATGCTAA)”, the “recombinant UMI read abundance (log10)” value is reported as 0.00572.
With “CGGAATTCATGGACCGGTTTTCCCGGTAATCCGTATTTGTT (site CGGAATTCTAA)” the “recombinant UMI read abundance (log10)” value was 2.72.
In the case of “CGGACATCATGGACCGGTTTTCCCGGTAATCCGTATTTGCG (site CGGACATCTAG)”, the “recombinant UMI read abundance (log10)” value is reported as 0.
For “CGGACATCATGGACCGGTTTTCCCGGTAATCCGTATTTGCG (site CGGACATCTCG)”, the “recombinant UMI read abundance (log10)” value was 2.25.
For “CGGACATCATGGACCGGTTTTCCCGGTAATCCGTATTTGCG (site CGGACATCTGG)”, the “recombinant UMI read abundance (log10)” value was 0.
For “CGGACATCATGGACCGGTTTTCCCGGTAATCCGTATTTGCG (site CGGACATCTTG)”, the “recombinant UMI read abundance (log10)” value was 0.00626.
With “CGGACCCCATGGACCGGTTTTCCCGGTAATCCGTATTTGTT (site CGGAATCCTAA)” the “recombinant UMI read abundance (log10)” value was 0.00407.
In the case of “CGGACCCCATGGACCGGTTTTCCCGGTAATCCGTATTTGTT (site CGGACCCCTAA)”, the “recombinant UMI read abundance (log10)” value is reported as 1.02.
With “CGGACTACATGGACCGGTTTTCCCGGTAATCCGTATTTGCG (site CGGACTACTCG)” the “recombinant UMI read abundance (log10)” value was 1.64.
In the case of “CGGACTTCATGGACCGGTTTTCCCGGTAATCCGTATTTGCC (site CGGACTTCTGG)”, the “recombinant UMI read abundance (log10)” value is reported as 1.27.
For “CGGATGACATGGACCGGTTTTCCCGGTAATCCGTATTTGCA (site CGGATGACTTG)”, the “recombinant UMI read abundance (log10)” value was 2.89.
For “CGGATGGCATGGACCGGTTTTCCCGGTAATCCGTATTTGAA (site CGGATGGCTTT)”, the “recombinant UMI read abundance (log10)” value was 2.15.
With “CGGATTCCATGGACCGGTTTTCCCGGTAATCCGTATTTGCT (site CGGAATCCTAA)” the “recombinant UMI read abundance (log10)” value was 0.
In the case of “CGGATTCCATGGACCGGTTTTCCCGGTAATCCGTATTTGCT (site CGGATTCCTAG)”, the “recombinant UMI read abundance (log10)” value is reported as 0.
In the case of “CGGCACTCATGGACCGGTTTTCCCGGTAATCCGTATTTGTA (site CGGCACTCTTA)”, the “recombinant UMI read abundance (log10)” value is reported as 3.03.
In the case of “CGGCAGTCATGGACCGGTTTTCCCGGTAATCCGTATTTGCC (site CGGAAGTCTGG)”, the “recombinant UMI read abundance (log10)” value is reported as 0.
For “CGGCAGTCATGGACCGGTTTTCCCGGTAATCCGTATTTGCC (site CGGCAGTCTGG)”, the “recombinant UMI read abundance (log10)” value was 2.22.
For “CGGCAGTCATGGACCGGTTTTCCCGGTAATCCGTATTTGCC (site CGGGAGTCTGG)”, the “recombinant UMI read abundance (log10)” value was 0.
With “CGGCAGTCATGGACCGGTTTTCCCGGTAATCCGTATTTGCC (site CGGTAGTCTGG)” the “recombinant UMI read abundance (log10)” value was 0.
With “CGGCCATCATGGACCGGTTTTCCCGGTAATCCGTATTTGCT (site CGGACATCTAG)” the “recombinant UMI read abundance (log10)” value was 0.
For “CGGCCATCATGGACCGGTTTTCCCGGTAATCCGTATTTGCT (site CGGCCATCTAG)”, the “recombinant UMI read abundance (log10)” value was 1.29.
With “CGGCCATCATGGACCGGTTTTCCCGGTAATCCGTATTTGCT (site CGGGCATCTAG)” the “recombinant UMI read abundance (log10)” value was 0.0046.
With “CGGCCATCATGGACCGGTTTTCCCGGTAATCCGTATTTGCT (site CGGTCATCTAG)” the “recombinant UMI read abundance (log10)” value was 0.
In the case of “CGGCCCACATGGACCGGTTTTCCCGGTAATCCGTATTTGTG (site CGGCCCACTCA)”, the “recombinant UMI read abundance (log10)” value is reported as 0.024.
For “CGGCCGACATGGACCGGTTTTCCCGGTAATCCGTATTTGTA (site CGGCCGACTTA)”, the “recombinant UMI read abundance (log10)” value was 1.2.
With “CGGCCTCCATGGACCGGTTTTCCCGGTAATCCGTATTTGTT (site CGGAATCCTAA)” the “recombinant UMI read abundance (log10)” value was 0.0121.
For “CGGCCTCCATGGACCGGTTTTCCCGGTAATCCGTATTTGTT (site CGGCCTCCTAA)”, the “recombinant UMI read abundance (log10)” value was 0.0159.
With “CGGCGCCCATGGACCGGTTTTCCCGGTAATCCGTATTTGAG (site CGGCGCCCTCT)” the “recombinant UMI read abundance (log10)” value was 0.00618.
In the case of “CGGCGCCCATGGACCGGTTTTCCCGGTAATCCGTATTTGTC (site CGGCGCCCTGA)”, the “recombinant UMI read abundance (log10)” value is reported as 1.85.
For “CGGCTTTCATGGACCGGTTTTCCCGGTAATCCGTATTTGGC (site CGGCTTTCTGC)”, the “recombinant UMI read abundance (log10)” value was 0.438.
With “CGGGAAACATGGACCGGTTTTCCCGGTAATCCGTATTTGAT (site CGGGAAACTAT)” the “recombinant UMI read abundance (log10)” value was 2.27.
With “CGGGAAACATGGACCGGTTTTCCCGGTAATCCGTATTTGAT (site CGGGAACCTAT)” the “recombinant UMI read abundance (log10)” value was 0.00381.
